Test results published in article PMC10247784, “Physiological activation of human and mouse bitter taste receptors by bile acids” (Communications Biology, 2023).

Tests used:
[1] = tested on: T2R02 of Latimeria chalumnae; design: method as in PMID 33355666; details: cited from earlier work
[2] = target: T1, mouse Tas2r105 (Mus musculus, UniProt Q9JKT4); test: Calcium imaging assay (FLIPR), HEK293T-Gα16gust44 cells transfected with mouse Tas2r105; format: cell-based; details: for Δ F/F: Tas2r105
T1 construct: expressed in transfected cells; host or cells: HEK293T-Gα16gust44
T1 sequence (Q9JKT4 1-300): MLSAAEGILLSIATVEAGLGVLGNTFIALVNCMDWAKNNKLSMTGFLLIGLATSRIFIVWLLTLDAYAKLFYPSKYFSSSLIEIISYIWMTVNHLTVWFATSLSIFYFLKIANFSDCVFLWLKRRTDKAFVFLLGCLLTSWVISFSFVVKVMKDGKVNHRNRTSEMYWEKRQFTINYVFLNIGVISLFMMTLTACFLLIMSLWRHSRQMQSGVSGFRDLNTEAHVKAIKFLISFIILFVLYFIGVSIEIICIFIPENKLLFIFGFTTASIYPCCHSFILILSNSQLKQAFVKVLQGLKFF

Question: What does the source list for `C[C@H](CCC(=O)NCC(=O)O)[C@H]1CC[C@H]2[C@@H]3[C@H](O)C[C@@H]4C[C@H](O)CC[C@]4(C)[C@H]3C[C@H](O)[C@]12C` [Glycocholic Acid, glycocholic acid]?
Answer: Activation of T2R02 [1]: activate; Δ F/F ([2]; conc. 0,01 mM): 0.004381; Δ F/F ([2]; conc. 0,1 mM): 0.01642; Δ F/F ([2]; conc. 0,03 mM): 0.01245; Δ F/F ([2]; conc. 0,3 mM): 0.0274; Δ F/F ([2]; conc. 0,001 mM): 0.003279; Δ F/F ([2]; conc. 1 mM): 0.07136; Δ F/F ([2]; conc. 0,003 mM): -0.003104; RLU ([2]; Time 0 s): 0 RLU; RLU ([2]; Time 2 s): -27.0595 RLU; RLU ([2]; Time 4 s): -18.6603 RLU; RLU ([2]; Time 6 s): -18.2123 RLU; RLU ([2]; Time 8 s): -47.8563 RLU; RLU ([2]; Time 12 s): -34.2819 RLU; RLU ([2]; Time 14 s): -34.7557 RLU; RLU ([2]; Time 16 s): -23.6188 RLU; RLU ([2]; Time 18 s): -16.5747 RLU; RLU ([2]; Time 18.781 s): -3.899 RLU; RLU ([2]; Time 20.781 s): -20.1413 RLU; RLU ([2]; Time 22.781 s): -4.143 RLU; RLU ([2]; Time 24.781 s): 15.6549 RLU; RLU ([2]; Time 26.781 s): 13.7683 RLU; RLU ([2]; Time 28.781 s): 17.1414 RLU; RLU ([2]; Time 30.781 s): 33.1924 RLU; RLU ([2]; Time 32.781 s): 40.0682 RLU; RLU ([2]; Time 34.781 s): 38.6999 RLU; RLU ([2]; Time 36.781 s): 117.771 RLU; RLU ([2]; Time 38.781 s): 121.11 RLU; RLU ([2]; Time 40.781 s): 113.511 RLU; RLU ([2]; Time 42.781 s): 141.314 RLU; RLU ([2]; Time 44.781 s): 160.969 RLU; RLU ([2]; Time 46.781 s): 200.571 RLU; RLU ([2]; Time 48.781 s): 228.76 RLU; RLU ([2]; Time 50.781 s): 238.054 RLU; RLU ([2]; Time 52.781 s): 279.774 RLU; RLU ([2]; Time 54.781 s): 314.942 RLU; RLU ([2]; Time 56.781 s): 299.791 RLU; RLU ([2]; Time 58.781 s): 350.668 RLU; RLU ([2]; Time 60.781 s): 363.761 RLU; RLU ([2]; Time 62.781 s): 387.64 RLU; RLU ([2]; Time 64.781 s): 388.62 RLU; RLU ([2]; Time 66.781 s): 424.095 RLU; RLU ([2]; Time 68.781 s): 419.549 RLU; RLU ([2]; Time 70.781 s): 443.973 RLU; RLU ([2]; Time 72.781 s): 413.221 RLU; RLU ([2]; Time 74.781 s): 419.192 RLU; RLU ([2]; Time 76.781 s): 460.126 RLU; RLU ([2]; Time 78.781 s): 478.685 RLU; RLU ([2]; Time 80.781 s): 487.49 RLU; RLU ([2]; Time 82.781 s): 529.97 RLU; RLU ([2]; Time 84.781 s): 535.792 RLU; RLU ([2]; Time 86.781 s): 528.828 RLU; RLU ([2]; Time 88.781 s): 565.311 RLU; RLU ([2]; Time 90.781 s): 546.96 RLU; RLU ([2]; Time 92.781 s): 541.782 RLU; RLU ([2]; Time 94.781 s): 524.334 RLU; RLU ([2]; Time 96.781 s): 507.8 RLU; RLU ([2]; Time 98.781 s): 505.738 RLU; RLU ([2]; Time 100.781 s): 510.912 RLU; RLU ([2]; Time 102.781 s): 470.239 RLU; RLU ([2]; Time 104.781 s): 497.869 RLU; RLU ([2]; Time 106.781 s): 500.977 RLU; RLU ([2]; Time 108.781 s): 492.243 RLU; RLU ([2]; Time 110.781 s): 525.903 RLU; RLU ([2]; Time 112.781 s): 501.6 RLU; RLU ([2]; Time 114.781 s): 517.173 RLU; RLU ([2]; Time 116.781 s): 514.443 RLU; RLU ([2]; Time 118.781 s): 515.53 RLU; RLU ([2]; Time 120.781 s): 497.17 RLU; RLU ([2]; Time 122.781 s): 525.829 RLU; RLU ([2]; Time 124.781 s): 530.193 RLU; RLU ([2]; Time 126.781 s): 525.829 RLU; RLU ([2]; Time 128.781 s): 520.174 RLU; RLU ([2]; Time 130.781 s): 519.565 RLU; RLU ([2]; Time 132.781 s): 551.214 RLU; RLU ([2]; Time 134.781 s): 551.693 RLU; RLU ([2]; Time 136.781 s): 519.874 RLU; RLU ([2]; Time 137.578 s): 524.174 RLU; RLU ([2]; Time 143.578 s): 517.004 RLU; RLU ([2]; Time 149.578 s): 507.474 RLU; RLU ([2]; Time 155.578 s): 522.299 RLU; RLU ([2]; Time 161.578 s): 476.762 RLU; RLU ([2]; Time 167.578 s): 499.828 RLU; RLU ([2]; Time 173.578 s): 455.735 RLU; RLU ([2]; Time 179.578 s): 459.26 RLU; RLU ([2]; Time 185.578 s): 429.678 RLU; RLU ([2]; Time 191.578 s): 409.042 RLU; RLU ([2]; Time 197.578 s): 394.775 RLU; RLU ([2]; Time 203.578 s): 421.467 RLU; RLU ([2]; Time 209.578 s): 379.61 RLU; RLU ([2]; Time 215.578 s): 405.275 RLU; RLU ([2]; Time 221.578 s): 372.014 RLU; RLU ([2]; Time 227.578 s): 339.525 RLU; RLU ([2]; Time 233.578 s): 348.807 RLU; RLU ([2]; Time 239.578 s): 313.214 RLU; RLU ([2]; Time 245.578 s): 300.083 RLU; RLU ([2]; Time 293.578 s): 317.696 RLU; RLU ([2]; Time 299.578 s): 309.428 RLU; RLU ([2]; Time 305.578 s): 321.267 RLU; RLU ([2]; Time 311.578 s): 329.776 RLU; RLU ([2]; Time 317.578 s): 375.676 RLU; RLU ([2]; Time 323.578 s): 369.197 RLU; RLU ([2]; Time 329.578 s): 335.975 RLU; RLU ([2]; Time 335.578 s): 363.52 RLU; RLU ([2]; Time 341.578 s): 327.284 RLU; RLU ([2]; Time 347.578 s): 338.669 RLU; RLU ([2]; Time 353.578 s): 324.825 RLU; RLU ([2]; Time 359.578 s): 287.782 RLU; Activation threshold concentration Tas2r105 ([2]; p < 0.01 vs empty vector): 300 µM
